{"source": "patent US6403774B1", "about": "“Azoamidine compound” (Wako Pure Chemical Industries, Ltd., priority 2000, dated 2002)", "experiment": "Thermal decomposition of the azo compound (10 hour half-life temperature, decomposition rate constant)", "format": "physicochemical", "data": [{"substance": "2,2′-azobis[2-methyl-1-(1-pyrrolidinyl)iminopropane] hydrochloride [Example 1]", "values": [{"measurement": "10 hour half-life temperature", "value": 66.5, "unit": "°C"}, {"measurement": "Decomposition rate constant k60° C.", "setting": "60° C.", "value": "7.94e-06", "unit": "s⁻¹"}, {"measurement": "Decomposition rate constant k70° C.", "setting": "70° C.", "value": "3.03e-05", "unit": "s⁻¹"}, {"measurement": "Ea", "setting": "decomposition kinetics", "value": 30.39, "unit": "kcal/mol"}, {"measurement": "lnA", "setting": "decomposition kinetics", "value": 34.19}]}]}
